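In this assay, cells in 96-well plates receive the compound at five concentrations for 48 hours. Endpoints are linearly interpolated between the surrounding concentrations. GI50 is the concentration that inhibits growth by half. TGI marks complete inhibition of growth.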
Legend:
Assay in all cases: NCI-60 cell line screen, 48 h
[1] = test system: OVCAR-5 ovarian
[2] = test system: MOLT-4 leukemia
[3] = test system: K-562 leukemia
[4] = test system: SN12C renal
[5] = test system: NCI-H460 lung
[6] = test system: NCI-H522 lung
[7] = test system: SR leukemia
[8] = test system: BT-549 breast

SMILES	GI50 [1] [µM]	TGI [1] [µM]	GI50 [2] [µM]	TGI [2] [µM]	GI50 [3] [µM]	TGI [3] [µM]	GI50 [4] [µM]	TGI [4] [µM]	GI50 [5] [µM]	TGI [5] [µM]	GI50 [6] [µM]	TGI [6] [µM]	GI50 [7] [µM]	TGI [7] [µM]	GI50 [8] [µM]	TGI [8] [µM]
CCN1CCN(Cc2ccc3cc(C(=O)Nc4cc(NC(=O)c5ccc6c(c5)OCCO6)ccc4F)ccc3n2)CC1	0.0858	12.5	0.0504	2.23	0.0505	14.5	0.0524	1.82	0.037	0.563	0.0351	0.427	0.0443	1.48	0.146	7.82
N=C1N=Nc2nc(C3(c4nc5n(c4O)C(=N)N=N5)Cc4ccccc4C3=O)c(O)n21 (stereo not drawn)		> 100		> 100		> 100		> 100		> 100	87.5	> 100		> 100	> 100	> 100
CCC1=C[C@H]2CN(CCc3c([nH]c4ccccc34)[C@@](C(=O)OC)(c3cc4c(cc3OC)N(C)[C@H]3[C@@](O)(C(=O)OC)[C@H](OC(C)=O)[C@]5(CC)[C@@H]6C[C@@H]6CN6CC[C@]43[C@@H]65)C2)C1	0.126	13.1	0.0737	> 25			0.0932	4.99	0.0383	2.65	0.011	0.302			0.106	4.29
Cc1cc(Cl)ccc1Nc1nc(C(F)(F)F)ccc1C(=O)N/N=C/c1ccc(F)cc1	2.45	15.1	1.6	4.98	1.89	6.05	2.56	11.4	1.95	6.04	2.4	8.12	0.863	3.62	1.06	3.51
CC1=C(C(=O)Nc2ccc(Cl)c(Cl)c2)C(c2cccc(O)c2)NC(=S)N1 (stereo not drawn)	> 50	> 50	16.8	> 50	10.8	37.3	8.66	20.1	13.5	21.4	12	25.2	14.2	49	7.97	19.3
COc1ccc2c(c1)N(CCC1CCCCN1C)c1ccccc1S2 (stereo not drawn)		31.2		17.2		18.2		29.4		21.5		28		20.9		30.4
COC(=O)/C(Br)=C/c1c[nH]c2ccc(Br)cc12	13.6	31.3	10.6	> 100	> 100	> 100	18.4	43.3	17.6	36.9	10.2	32.1	26.9	> 100	11.2	23.6
Cc1cc(Cl)ccc1Nc1nc(C(F)(F)F)ccc1C(=O)N/N=C/c1c(Cl)cccc1Cl	0.888	> 100	0.157	0.597	0.253		0.262	> 100	0.322	4.39	0.306		0.263	> 100	0.194	0.675
COc1ccc2c(c1)N(CCO)C1=C(C(=O)OC1)C2c1cccc(Br)c1 (stereo not drawn)	0.466	> 100	0.458	> 100	0.0532	> 67.6	0.45	> 88.1	0.0477	5.05	0.0226	0.0693	0.0826	55.7	0.305	34
Cc1ccc(S(=O)(=O)N2C/C(=C\c3cc(F)cc(F)c3)C(=O)/C(=C/c3cc(F)cc(F)c3)C2)cc1	0.713	2.28	0.299	2.11	0.0605	1.24	0.272	0.861	0.742	2.91	0.26	0.721	0.0364	0.296	0.286	0.709
O=C(Nc1cccc(-n2cc(-c3ccncc3)c(-c3ccc(O)c(Cl)c3)n2)c1)Nc1ccc(Cl)c(C(F)(F)F)c1	3.02	13.9	1.64	4.65	2.44	9.79	2.99	13.4	2.56	9.51	1.64	4.16	1.6	5.6	1.82	4.28
COc1cc2c(cc1C)NC(=O)/C2=C/c1c(C)nc2sc(C)cn12	> 100	> 100	34.4	> 100	35.3	> 100	74.5	> 100	45.7	> 100	52.5	> 100	22.6	> 100	40.4	> 100
O=C(Nc1ncc(Cc2ccc(Cl)cc2)s1)c1ccc2c(c1)OCCO2	0.266	> 100	0.0877	> 100	0.0453	> 100	0.155	> 100	0.0404	38.7	0.0331		0.0528	> 100	0.207	> 83.4
Cn1c2ccccc2c(=S)c2cc(NC(=O)CCCCC(=O)Nc3ccc4c(c3)c(=S)c3ccccc3n4C)ccc21		> 100		> 100		> 100		> 100		> 100		> 100		> 100		> 100
COc1ccc2c(c1)CC[C@@H]1[C@@H]2CC[C@]2(C)c3c(cc(C(=O)c4ccccc4)c4sccc34)C[C@@H]12	60.7	> 100	> 100	> 100	> 100	> 100	> 100	> 100	> 100	> 100	> 100	> 100	> 100	> 100	> 100	> 100
COc1ccc(/C=C/C(=O)c2ccc(NC(=O)CSc3nnc(-c4cc(OC)c(OC)c(OC)c4)o3)cc2)cc1	1.72	3.3	2.05	5.27			1.83	3.57	2	3.85	1.55	3.22	1.86	4.01	1.4	2.81

SMILES	GI50 [1] [µM]	TGI [1] [µM]	GI50 [2] [µM]	TGI [2] [µM]	GI50 [3] [µM]	TGI [3] [µM]	GI50 [4] [µM]	TGI [4] [µM]	GI50 [5] [µM]	TGI [5] [µM]	GI50 [6] [µM]	TGI [6] [µM]	GI50 [7] [µM]	TGI [7] [µM]	GI50 [8] [µM]	TGI [8] [µM]
CC(=O)O[C@@H]1CC(=O)O[C@@H]2C[C@@H](CC/C(Cl)=C/C/C=C\1C)O[C@@H]2CO	> 25	> 25	> 25	> 25	> 25	> 25	> 25	> 25	> 25	> 25	> 25	> 25	> 25	> 25	24.5	> 25
O=CNc1ccc2c(c1)Cc1cc([N+](=O)[O-])ccc1-2	4.2	> 100	2.78	> 53.1			> 26.2	> 100	2.78	> 60.3	1.85	7.56	2.17	> 100	2.93	> 100
CCCNNC(=O)c1ccc(CNC(=O)/C=C/c2ccccc2)cc1	0.104		0.106	> 100	0.0732	> 100	0.313	> 100	0.286	> 100	0.226	> 100	0.18	> 100	1.43	> 100
O=C(O)C#Cc1ccc([N+](=O)[O-])cc1		> 100		> 100		> 100		> 100		> 100				> 100		> 100
O=C(O)c1cn(C2CC2)c2cc(N3CCN(C(=O)Nc4nc(-c5ccc(Cl)cc5)cs4)CC3)c(F)cc2c1=O	3.4	> 100			2.24	> 100	3.53	> 100	1.76	> 100	2.55	9.14			0.934	25.5
CCOC(=O)c1c2c(n3cccc(F)c13)C(=O)c1ncccc1C2=O	1.16	18.7	3.06	23.7	0.357	> 100	0.457	17.6	0.0263	1.12	0.394	3.77				
COc1ccc(OC)c(/C=C/c2cnnc3ccccc23)c1		> 10		> 10		> 10		> 10		> 10		> 10		5.14		
COc1cc2c(/C=C3/C(=O)Nc4c3ccc3ccccc43)c(Cl)[nH]c2cc1C	10.2	> 50			< 0.005	0.58	0.071	> 19.6	0.0244	> 21.8	0.0123		< 0.005	< 0.005	0.0254	> 50
COc1ccc2c(c1)c(=O)oc1cc(OC/C(=N\O)c3ccc(F)cc3)ccc12	34.4	> 100	18.1	> 100	25.6	> 100	16.9	34.3	18.6	53.3	14.9	37.8			18.8	44.2
NNc1nc(-c2ccccn2)nc2sc3c(c12)CCCCCC3	8.61	> 100	3.67	22.7	3.78	> 100	6.36	> 100	4.22	57.5	12.1	68.3			9.73	> 100
CCNCCNc1cc(C2CCCC2)c(C#N)c2nc3ccccc3n12	5.13	19.9			2.49	5.81	3.61	12.9	2.75	7.19	2.26	5.33	1.66	6.13	2.45	5.84
CC(=O)/C=C/c1ccc(N(C)Cc2ccc(C(C)(C)C)cc2)cc1	195	490	116	425			141	300	144	376	128	310	137	499	133	277
CCOC(=O)C1=C(N)Oc2cc(OC)ccc2C1c1ccc(F)c(F)c1 (stereo not drawn)	10.5	24.1	1.58	22.3			4.97	19.5	1.01	15.2	0.498	10.2	0.533	16.7	2.05	16.3
N=c1c2c(=O)n3c(nc2nc2sc4ccc(Cl)cc4n12)-c1ccccc1Sc1ccccc1-3	4.62	24	1.77	9.64	1.61	> 100	2.94	14	2.07	6.98	1.76	11.4	2.15	9.14		
O=C1[C@H](c2ccccc2)C2c3ccccc3CCN12 (stereo partly drawn)	> 100	> 100	> 100	> 100	> 100	> 100	> 100	> 100	> 100	> 100	> 100	> 100	> 100	> 100		
COc1cc2c3c(n(CCCN4CCOCC4)c(=O)c2cc1OC)-c1cc2c(cc1C3=O)OCO2	67.5	> 100	0.0841	1.81	4.54	> 100	0.821	> 100	0.277	> 100	3.97	> 100			12.6	> 100
